One experiment addresses ERK protein (Mus musculus, UniProt P63085). Description: TdF (Temperature Dependence Fluorescence, thermal shift) assay for ERK. The format is binding. The text has this: Assays: TdF Assay for ERK […] The TdF assay was mainly conducted in the 96-well based CHROMO-4 real time fluorescence plate reader (BioRad). The Sypro Orange (Sigma-Aldrich), environmentally sensitive fluorescence dye, was used to monitor the protein folding-unfolding transition. Protein-ligand binding was gauged by the change (or shift) in the unfolding transition temperature (ΔTm) acquired at protein alone with respect to protein in the presence of ligand of interest. Compound of interest was first prepared in DMSO stock (typical concentration: 10 mM). […] Final percentage of DMSO resided in the sample was 2%. The sample plate was heated from 30° C. to 90° C. with thermal ramping rate of 1° C./min. […] The instrument thermal stability was ±0.2° C. The melting temperatures (Tm) for ERK protein under aforementioned conditions occurred at 61.0±0.2° C. and 64.8±02° C. respectively. Theoretical Basis for TdF-Based Ligand Binding Affinity Constant […] In brief, the binding constant of the ligand at the Tm is expressed as below: [formula] where T0 is the midpoint of unfolding for unliganded protein and Tm is the midpoint of unfolding in presence of ligand. [LTm] is free ligand at Tm. The ΔHu and ΔCpu are the enthalpy of unfolding and heat capacity change of unfolding for the protein respectively. Following algorithm derived by Winsor and coworker, the T0, ΔHu and ΔCpu can be determined separately from nonlinear regression fitting the protein alone melting curve: Where F(T) is the observed fluorescence intensity at any temperature T, Yn and Yu are the predicted fluorescence intensities for fully folded and unfolded protein, respectively; mn and mu are slope correction for changes in Yn and Yu with respect to changes in temperature (analogously replace T0 with Tm in the above equation for liganded protein to yield Tm). […] [formula] where ΔHL (T) is the van't Hoff enthalpy of ligand binding at temperature T and ΔCpL is the heat capacity upon ligand binding. For simplicity, the ΔCpL and ΔHL (T) were set to zero and −7 kcal/mol respectively.

The target of experiment [1] is fully phosphorylated, active Mouse ERK2 protein (Mus musculus (Mouse), UniProt P63085). Kind of experiment: Active ERK2 (aERK) IMAP assay, condition 1. The format is biochemical. The settings on record: aERK assay condition 1, 30 μM ATP. The method, then:
Active ERK2 (aERK) Assay: (Unless Indicated Otherwise, the Data Provided for aERK was obtained using Condition 1)
Activated ERK2 activity was also determined in the IMAP assay format using the procedure outlined above. […] Reactions proceeded for 30 minutes before termination by addition of 60 μl IMAP detection beads in binding buffer. Plates were read as above after 30 minute binding equilibration.

Experiment [2] addresses fully phosphorylated, mouse aERK2 enzyme (Mus musculus (Mouse), UniProt P63085). Kind of experiment: Active ERK2 (aERK) IMAP-FP assay, condition 2. The experiment is classed as biochemical. The procedure, abridged: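 Phosphorylation by fully phosphorylated mouse ERK2 ran 40-45 min, then quenched with IMAP beads (1:1000) in binding buffer; fluorescence polarization read after 30 min binding equilibration.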

Where [3] appears, read: 3 μM ERK protein, uncertainty estimated ±50%, read-out: Kd TdF.
Setting [4] is: active ERK2, read-out: aErk2 Ic50.
[5] abbreviates: aERK assay condition 2, 30 uM ATP, read-out: aERK IC50.

Molecules are shown by their SMILES. Like-named read-outs stand apart in the source and are kept apart here.

Sequence of ERK protein (P63085 2-358 limits assumed): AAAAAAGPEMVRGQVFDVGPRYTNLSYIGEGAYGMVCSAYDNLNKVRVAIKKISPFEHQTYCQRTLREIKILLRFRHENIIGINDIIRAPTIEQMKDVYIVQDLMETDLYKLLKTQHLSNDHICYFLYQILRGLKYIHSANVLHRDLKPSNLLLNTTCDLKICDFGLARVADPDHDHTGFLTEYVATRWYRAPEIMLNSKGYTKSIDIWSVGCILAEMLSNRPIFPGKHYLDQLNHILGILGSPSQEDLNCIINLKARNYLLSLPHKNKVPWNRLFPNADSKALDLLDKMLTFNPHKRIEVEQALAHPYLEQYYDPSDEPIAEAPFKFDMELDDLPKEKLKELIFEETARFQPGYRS
Sequence of fully phosphorylated, active Mouse ERK2 protein (P63085 whole entry): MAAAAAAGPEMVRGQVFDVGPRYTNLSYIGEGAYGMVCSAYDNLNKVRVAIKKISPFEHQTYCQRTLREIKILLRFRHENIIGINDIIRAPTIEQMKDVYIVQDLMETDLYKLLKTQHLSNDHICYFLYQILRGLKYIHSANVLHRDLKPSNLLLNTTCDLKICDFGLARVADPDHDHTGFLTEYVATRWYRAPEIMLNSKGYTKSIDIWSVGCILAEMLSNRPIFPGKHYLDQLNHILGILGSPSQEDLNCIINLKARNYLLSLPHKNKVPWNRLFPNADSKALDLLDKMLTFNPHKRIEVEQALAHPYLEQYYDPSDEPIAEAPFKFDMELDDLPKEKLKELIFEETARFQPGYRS
Sequence of fully phosphorylated, mouse aERK2 enzyme (P63085 whole entry): as above

What is called Kd is the equilibrium constant for the complex coming apart. Broadly, the IC50 is the concentration needed to halve the response being measured. Take `COc1cccc(F)c1CN1CCC[C@@H](NC(=O)c2ccc3[nH]nc(-c4cccc(C#N)c4)c3c2)C1`: the Kd at ERK protein (setting [3]) was 0.00083 µM. Further, the IC50 in experiment [1] amounted to 0.264 µM.

As for `Cc1cc(-c2n[nH]c3ccc(C(=O)N[C@@H]4CCCN(Cc5cc(F)c(Cl)cc5Cl)C4)cc23)ccn1`, at ERK protein (setting [3]), the Kd is 0.00976 µM. This compound also gave a half-inhibitory concentration (IC50) in experiment [1] of 0.66 µM.

For the compound `Cc1cc(-c2n[nH]c3ccc(C(=O)N[C@@H]4CCCN(Cc5cc6ccccc6n5C)C4)cc23)ccn1`, the Kd on ERK protein (setting [3]) is 0.00021 µM. This compound came in with an IC50 in experiment [1] of 0.0417 µM.

Consider `Cc1cc(-c2n[nH]c3ccc(C(=O)N[C@@H]4CCCN(Cc5ccccc5Cl)C4)cc23)ccn1`, for which the Kd on ERK protein (setting [3]) is 0.0002 µM. Moreover, half-maximal inhibition in experiment [1] (IC50) was put at 0.0281 µM.

Regarding `Cc1cc(-c2n[nH]c3ccc(C(=O)N[C@@H]4CCCN(CC(=O)c5ccccc5F)C4)cc23)ccn1`, on ERK protein (setting [3]), the Kd was 0.0024 µM. The midpoint of inhibition in experiment [1], the IC50, lay at 0.0329 µM.

In the case of `COc1cccc(F)c1CN1CCC[C@@H](NC(=O)c2ccc3[nH]nc(-c4ccc5cn[nH]c5c4)c3c2)C1`, the Kd on ERK protein (setting [3]) is 0.00027 µM. Moreover, the half-inhibitory concentration (IC50) in experiment [1] came to 0.163 µM.

Turning to `Cc1cc(-c2n[nH]c3ccc(C(=O)N[C@@H]4CCCN(CCc5ccccc5C(F)(F)F)C4)cc23)ccn1`, the Kd on ERK protein (read-out: Kd TdF, 3 μM ERK protein, uncertainty estimated ±50%) was 0.0022 µM. The IC50 in experiment [1] is 0.0869 µM.

Take `O=C(N[C@@H]1CCCN(Cc2ccncc2)C1)c1ccc2[nH]nc(-c3ccc4c(c3)CCO4)c2c1`: the Kd at ERK protein (setting [3]) is 0.076 µM. In experiment [1], this compound registered an IC50 of 0.626 µM.

Regarding `Cn1cc(CN2CCC[C@@H](NC(=O)c3ccc4[nH]nc(-c5ccc6c(c5)CCO6)c4c3)C2)c2ccccc21`, on ERK protein (setting [3]), the equilibrium dissociation constant (Kd) is 0.011 µM. For the same compound, the IC50 in experiment [1] is 0.158 µM.

Turning to `COc1cccc(F)c1CN1CCC[C@@H](NC(=O)c2ccc3[nH]nc(-c4ccc5sccc5c4)c3c2)C1`, the Kd at ERK protein (setting [3]) was 0.00015 µM. Further, the IC50 in experiment [1] was found to be 0.807 µM.

As for `CCc1cc(-c2n[nH]c3ccc(C(=O)N[C@@H]4CCCN(Cc5ccccc5F)C4)cc23)ccn1`, the Kd at ERK protein (setting [3]) was 0.0004 µM. In addition, in experiment [1], it took 0.0198 µM to reach half-maximal inhibition (IC50).

Turning to `COc1cccc(F)c1CN1CC(CO)CC(NC(=O)c2ccc3[nH]nc(-c4ccc5nccn5c4)c3c2)C1` (stereo not drawn), on ERK protein (setting [3]), the Kd was 0.00168 µM. Further, the IC50 in experiment [1] turned out to be 0.14 µM.

In the case of `CN1CC(NC(=O)c2ccc3[nH]nc(-c4ccncc4)c3c2)CC(c2ccccc2)C1` (stereo not drawn) [drawing 219], the Kd at ERK protein (setting [3]) was 0.0014 µM.

For the compound `Cc1cc(-c2n[nH]c3ccc(C(=O)N[C@@H]4CCCN(Cc5cn(C)c6ccccc56)C4)cc23)ccn1`, at ERK protein (setting [3]), the Kd is 0.00138 µM. The compound further had a concentration for half-maximal inhibition (IC50) in experiment [1] of 0.0215 µM.

As to `COc1cccc(F)c1CN1CCCC(NC(=O)c2ccc3[nH]nc(-c4ccc5c(c4)CCO5)c3c2)C1` (stereo not drawn), the Kd at ERK protein (setting [3]) was 0.00052 µM. Moreover, the IC50 in experiment [1] was 0.033 µM.

`Cc1cc(-c2n[nH]c3ccc(C(=O)N[C@@H]4CCCN(C5CCc6ccccc65)C4)cc23)ccn1` (stereo partly drawn): on ERK protein (setting [3]), the dissociation constant (Kd) was 0.00028 µM. This compound also showed an IC50 in experiment [1] of 0.0654 µM.

`CC(=O)Nc1cc(-c2n[nH]c3ccc(C(=O)N[C@@H]4CCCN(Cc5ccccc5F)C4)cc23)ccc1O`: at ERK protein (setting [3]), the Kd was 0.00048 µM. Also, in experiment [1], it took 0.0747 µM to reach half-maximal inhibition (IC50).

For `CCCOc1ccccc1CN1CCC[C@@H](NC(=O)c2ccc3[nH]nc(-c4ccnc(C)c4)c3c2)C1`, at ERK protein (setting [3]), the Kd was 0.00172 µM. In experiment [1], this compound displayed an IC50 of 0.246 µM.

For `O=C(NC1CCCCNC1=O)c1ccc2[nH]nc(-c3ccncc3)c2c1` (stereo not drawn), the Kd on ERK protein (setting [3]) is 0.073 µM.

Consider `O=C(NC1CNCCC1c1cccc(F)c1)c1ccc2[nH]nc(-c3ccncc3)c2c1` (stereo not drawn), for which the equilibrium dissociation constant (Kd) on ERK protein (setting [3]) is 0.106 µM.

As for `O=C(NC1CNCC(c2ccccc2)C1)c1ccc2[nH]nc(-c3ccncc3)c2c1` (stereo not drawn), the Kd at ERK protein (setting [3]) is 0.0008 µM.

Consider `O=C(NC1CN(C(=O)OCc2ccccc2)CCNC1=O)c1ccc2[nH]nc(-c3ccncc3)c2c1` (stereo not drawn), for which the Kd at ERK protein (setting [3]) was 0.29 µM.

For `O=C(Nc1ccc2[nH]nc(-c3ccncc3)c2c1)C1CNCC(c2ccccc2)C1` (stereo not drawn), on ERK protein (setting [3]), the Kd was 0.008 µM.

Consider `COc1cccc(F)c1CN1C[C@H](NC(=O)c2ccc3[nH]nc(-c4ccnnc4)c3c2)CC[C@H]1C(=O)N(C)C` [N-[(3R,6S)-6-(dimethylcarbamoyl)-1-(2-fluoro-6-methoxybenzyl)piperidin-3-yl]-3-pyridazin-4-yl-1H-indazole-5-carboxamide], for which the IC50 in experiment [2] (setting [4]) stood at 0.137 µM.

As for `COc1cccc(F)c1CN1C[C@H](NC(=O)c2ccc3[nH]nc(-c4ccnc(C)c4)c3c2)CC[C@H]1C(=O)Nc1ccncc1` [N-[(3R,6S)-1-(2-fluoro-6-methoxybenzyl)-6-(pyridin-4-ylcarbamoyl)piperidin-3-yl]-3-(2-methylpyridin-4-yl)-1H-indazole-5-carboxamide], the IC50 in experiment [2] (setting [5]) was found to be 0.003 µM.

For the compound `COc1cccc(F)c1CN1C[C@H](NC(=O)c2ccc3[nH]nc(-c4ccnc(C)c4)c3c2)CC[C@H]1C(=O)NN(C)C` [N-[(3R,6S)-6-[(2,2-dimethylhydrazino)-carbonyl]-1-(2-fluoro-6-methoxybenzyl)-piperidin-3-yl]-3-(2-methylpyridin-4-yl)-1H-indazole-5-carboxamide], in experiment [2] (setting [4]), the IC50 was 0.0122 µM.

As for `Cc1cc(-c2n[nH]c3ccc(C(=O)N[C@@H]4CC[C@@H](C(=O)N(C)C)N(Cc5cccs5)C4)cc23)ccn1` [N-[(3R,6S)-6-(dimethylcarbamoyl)-1-(thiophen-2-ylmethyl)piperidin-3-yl]-3-(2-methylpyridin-4-yl)-1H-indazole-5-carboxamide], the IC50 in experiment [2] (setting [4]) worked out at 0.0144 µM.

Take `COC(=O)[C@@H](c1c(F)cccc1F)N1CCC[C@@H](NC(=O)c2ccc3[nH]nc(-c4ccncc4)c3c2)C1` [(R)-methyl 2-(2,6-difluorophenyl)-2-((R)-3-(3-(pyridin-4-yl)-1H-indazole-5-carboxamido)piperidin-1-yl)acetate]: in experiment [2] (setting [5]), the IC50 was 2.21 µM.

For the compound `[2H]C([2H])([2H])Oc1cccc(F)c1CN1C[C@H](NC(=O)c2ccc3[nH]nc(-c4ccnc(C)c4)c3c2)CC[C@H]1C(=O)N1CCN(C(=O)OC(C)(C)C)CC1`, the IC50 in experiment [2] (setting [4]) is 0.0122 µM.

For `CCN(CC)C(=O)[C@@H]1CC[C@@H](NC(=O)c2ccc3[nH]nc(-c4ccc5nn(C)cc5c4)c3c2)CN1Cc1c(F)cccc1OC`, the IC50 in experiment [2] (setting [4]) came out at 0.0394 µM.

For the compound `COc1cccc(F)c1CN1C[C@H](NC(=O)c2ccc3[nH]nc(-c4ccnc(C)c4)c3c2)CC[C@H]1C(=O)N1CCN(C)CC1` [N-{(3R,6S)-1-(2-fluoro-6-methoxybenzyl)-6-[(4-methylpiperazin-1-yl)carbonyl]piperidin-3-yl}-3-(2-methylpyridin-4-yl)-1H-indazole-5-carboxamide], in experiment [2] (setting [4]), the IC50 was determined as 0.0325 µM.

As to `COc1cccc(F)c1CN1C[C@H](NC(=O)c2ccc3[nH]nc(-c4ccnc(C)c4)c3c2)CC[C@H]1C(=O)NCCF` [N-[(3R,6S)-6-[(2-fluoroethyl)carbamoyl]-1-(2-fluoro-6-methoxybenzyl)piperidin-3-yl]-3-(2-methylpyridin-4-yl)-1H-indazole-5-carboxamide], in experiment [2] (setting [4]), the IC50 was found to be 0.009 µM.

As to `CNC(=O)[C@@H]1CC[C@@H](NC(=O)c2ccc3[nH]nc(-c4ccncc4)c3c2)CN1Cc1c(F)cccc1OC` [N-[(3R,6S)-1-(2-fluoro-6-methoxybenzyl)-6-(methylcarbamoyl)piperidin-3-yl]-3-pyridin-4-yl-1H-indazole-5-carboxamide], in experiment [2] (setting [4]), the IC50 came out at 0.0032 µM.

For the compound `CNC(=O)C(c1c(F)cccc1F)N1CCC[C@@H](NC(=O)c2ccc3[nH]nc(-c4ccncc4)c3c2)C1` (single isomer, unassigned) [drawing 505, N-((R)-1-((R or S)-1-(2,6-difluorophenyl)-2-(methylamino)-2-oxoethyl)-piperidin-3-yl)-3-(pyridin-4-yl)-1H-indazole-5-carboxamide], in experiment [2] (setting [5]), the IC50 came out at 0.451 µM.

For the compound `COc1ccc(NC(=O)[C@@H]2CC[C@@H](NC(=O)c3ccc4[nH]nc(-c5ccnc(C)c5)c4c3)CN2Cc2c(F)cccc2OC)cc1F` [N-{(3R,6S)-1-(2-fluoro-6-methoxybenzyl)-6-[(3-fluoro-4-methoxyphenyl)carbamoyl]piperidin-3-yl}-3-(2-methylpyridin-4-yl)-1H-indazole-5-carboxamide], the IC50 in experiment [2] (setting [5]) amounted to 0.0167 µM.

On to `CCN(CC)C(=O)[C@@H]1CC[C@@H](NC(=O)c2ccc3[nH]nc(-c4ccnc(C)c4)c3c2)CN1Cc1cccs1`, for which, in experiment [2] (setting [4]), the IC50 came out at 0.0282 µM.

For the compound `COc1cccc(F)c1CN1C[C@H](NC(=O)c2ccc3[nH]nc(-c4ccncc4)c3c2)CC[C@H]1C(=O)N(C)C` [N-[(3R,6S)-6-(dimethylcarbamoyl)-1-(2-fluoro-6-methoxybenzyl)piperidin-3-yl]-3-pyridin-4-yl-1H-indazole-5-carboxamide], in experiment [2] (setting [4]), the IC50 turned out to be 0.0182 µM.

The values are drawn from patent publication US8999957B2, “Heterocyclic compounds as ERK inhibitors” (Merck Sharp & Dohme Corp., priority 2010, dated 2015).
